Laboratory results taken from patent publication US12378251B2, “Triazolopyrimidine compound and salt, composition and use thereof” (SHANGHAI INSTITUTE OF MATERIA MEDICA, CHINESE ACADEMY OF …, priority 2019, dated 2025).
Where two headings read alike, the source gives them in different places.

Columns and labels:
[1] = test system: human colon cancer cells HCT-116; assay: Inhibition of proliferation of HCT-116 cells (SRB method); format: cell-based
Protocol: The inhibitory effects of the compounds on the proliferation of human colon cancer cells HCT-116 were detected by a sulforodamine B (SRB) method. The specific steps were as follows: HCT-116 cells in the logarithmic phase were seeded into a 96-well culture plate at a suitable density with 90 μL per well. After overnight cultivation, the compounds at different concentrations were added to act for 72 h, and a solvent control group (negative control) was set. After 72 h of the compounds acting on the cells, the effects of the compounds on cell proliferation were detected using the SRB method as follows. The culture solution was discarded, and 100 μL/well of 10% trichloroacetic acid (TCA) pre-cooled at 4° C. was added, fixed at 4° C. for 1 h, then washed with distilled water for 5 times, and naturally dried in the air; 100 μL/well of SRB (4 mg/ml) solution prepared by 1% glacial acetic acid was added, stained at room temperature for 15 minutes; the supernatant was removed, washed with 1% acetic acid for 5 times, and air dried; 150 μl/well of Tris (10 mM) solution was added, then left at room temperature for 15 minutes; finally, a full-wavelength microplate enzyme-labeled instrument SpectraMax 190 was used to read with a measurement wavelength of 560 nm. The inhibition rate (%) of the compound on tumor cell growth was calculated by the following formula: [formula]

[2] = target: NAE enzyme (human recombinant APPBP1/UBA3) (Homo sapiens (Human), UniProt Q8TBC4); assay: Inhibition of NAE enzyme activity at the molecular level (HTRF); format: biochemical
Protocol: Homogeneous Time-Resolved Fluorescence (HTRF) technology was used to detect the in vitro inhibitory effect of the compound on NAE enzyme activity. […] (7) the inhibition rate of the compound was calculated by the following formula: • a. […] IC50 was calculated with a GraphPad software.

[3] = HCT-116 cells, 72 h, SRB, read-out: HCT-116 IC50*
[4] = HCT-116, 72 h, read-out: HCT-116 IC50* (μM)

NAE enzyme (human recombinant APPBP1/UBA3), sequence (Q8TBC4 whole entry): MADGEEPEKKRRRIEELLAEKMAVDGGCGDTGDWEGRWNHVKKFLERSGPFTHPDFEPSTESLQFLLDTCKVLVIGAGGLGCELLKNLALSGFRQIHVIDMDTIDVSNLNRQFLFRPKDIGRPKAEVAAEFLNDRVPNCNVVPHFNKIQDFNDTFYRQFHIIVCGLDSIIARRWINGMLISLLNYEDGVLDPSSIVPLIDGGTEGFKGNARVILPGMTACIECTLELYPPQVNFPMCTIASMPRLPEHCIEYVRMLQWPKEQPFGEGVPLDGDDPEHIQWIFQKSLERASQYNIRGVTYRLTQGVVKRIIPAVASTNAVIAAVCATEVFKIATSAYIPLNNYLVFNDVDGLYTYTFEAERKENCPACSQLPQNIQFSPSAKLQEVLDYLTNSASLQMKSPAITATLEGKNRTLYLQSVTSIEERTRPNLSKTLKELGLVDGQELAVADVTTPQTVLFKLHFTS
NAE enzyme (human recombinant APPBP1/UBA3), sequence (Q13564 whole entry partner): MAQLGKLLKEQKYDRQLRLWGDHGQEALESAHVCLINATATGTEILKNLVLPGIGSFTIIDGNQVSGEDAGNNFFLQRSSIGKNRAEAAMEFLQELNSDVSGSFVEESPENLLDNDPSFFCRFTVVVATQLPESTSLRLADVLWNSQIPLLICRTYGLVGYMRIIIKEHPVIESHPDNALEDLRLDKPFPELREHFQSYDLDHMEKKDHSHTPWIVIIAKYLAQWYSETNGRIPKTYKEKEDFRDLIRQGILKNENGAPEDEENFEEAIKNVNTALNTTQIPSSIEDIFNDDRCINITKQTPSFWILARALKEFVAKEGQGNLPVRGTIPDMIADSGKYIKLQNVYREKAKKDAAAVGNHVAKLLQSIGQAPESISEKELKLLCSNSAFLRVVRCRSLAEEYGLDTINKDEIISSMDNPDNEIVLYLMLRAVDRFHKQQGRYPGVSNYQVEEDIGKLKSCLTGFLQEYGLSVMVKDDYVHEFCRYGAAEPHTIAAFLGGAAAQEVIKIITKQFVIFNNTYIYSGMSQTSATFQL

## NS(=O)(=O)OCC1CC(n2nnc3c(NC4CCCC4)ncnc32)CC1O (stereo not drawn) [Compound S21]
[1]; [3]
  IC50: > 100 µM
[2]; 2 h; read-out: IR (10 μM)
  inhibition at 10 µM: 48.2%

## NS(=O)(=O)OCC1CC(n2nnc3c(NCc4ccco4)ncnc32)CC1O (stereo not drawn) [Compound S4]
[1]; [3]
  IC50: 0.01 to 100 µM
[2]; 2 h; read-out: IR (10 μM)
  inhibition at 10 µM: 98.6%

## NS(=O)(=O)OCC1CC(n2nnc3c(NCCCc4ccccc4)ncnc32)CC1O (stereo not drawn) [Compound S7]
[1]; [3]
  IC50: > 100 µM
[2]; 2 h; read-out: IR (10 μM)
  inhibition at 10 µM: 96.1%
[2]; NAE enzyme activity, HTRF
  IC50: 0.1 to 1 µM

## NS(=O)(=O)OCC1CC(n2nnc3c(Nc4cnc5ccccn45)ncnc32)CC1O (stereo not drawn) [Compound S19]
[1]; [3]
  IC50: > 100 µM
[2]; 2 h; read-out: IR (10 μM)
  inhibition at 10 µM: 57.8%

## NS(=O)(=O)OCC1CC(n2nnc3c(Nn4ccc5ccccc54)ncnc32)CC1O (stereo not drawn) [Compound S18]
[1]; [3]
  IC50: > 100 µM
[2]; 2 h; read-out: IR (10 μM)
  inhibition at 10 µM: 43.3%

## NS(=O)(=O)OCC1CC(n2nnc3c(N[C@H]4CC5(CCNCC5)c5ccccc54)ncnc32)CC1O (stereo partly drawn) [Compound S14]
[1]; [3]
  IC50: > 100 µM
[2]; 2 h; read-out: IR (10 μM)
  inhibition at 10 µM: 91.4%

## NS(=O)(=O)OCC1CC(n2nnc3c(NCCc4ccccc4)ncnc32)CC1O (stereo not drawn) [Compound S6]
[1]; [4]
  IC50: > 100 µM
[2]; 2 h, read-out: IR (10 μM)
  inhibition at 10 µM: 95.8%

## COC(=O)[C@H]1C=C[C@@H](Nc2ncnc3c2nnn3C2CC(O)C(COS(N)(=O)=O)C2)C1 (stereo partly drawn) [Compound S20]
[1]; [4]
  IC50: > 100 µM
[2]; 2 h, read-out: IR (10 μM)
  inhibition at 10 µM: 84.8%

## CCCCCCNc1ncnc2c1nnn2C1CC(O)C(COS(N)(=O)=O)C1 (stereo not drawn) [Compound S8]
[1]; [3]
  IC50: > 100 µM
[2]; 2 h; read-out: IR (10 μM)
  inhibition at 10 µM: 98.3%

## NS(=O)(=O)OCC1CC(n2nnc3c(NCc4ccccc4F)ncnc32)CC1O (stereo not drawn) [Compound S2]
[1]; [3]
  IC50: < 0.01 µM
[2]; 2 h; read-out: IR (10 μM)
  inhibition at 10 µM: 99.5%

## NS(=O)(=O)OCC1CC(n2nnc3c(Nc4n[nH]c5ccccc45)ncnc32)CC1O (stereo not drawn) [Compound S17]
[1]; [3]
  IC50: > 100 µM
[2]; 2 h; read-out: IR (10 μM)
  inhibition at 10 µM: 7.9%

## NS(=O)(=O)OCC1CC(n2nnc3c(NCCc4cccs4)ncnc32)CC1O (stereo not drawn) [Compound S5]
[1]; [4]
  IC50: > 100 µM
[2]; 2 h, read-out: IR (10 μM)
  inhibition at 10 µM: 95.2%
[2]; NAE enzyme activity, HTRF
  IC50: 0.1 to 1 µM

## NS(=O)(=O)OCC1CC(n2nnc3c(NCc4cccs4)ncnc32)CC1O (stereo not drawn) [Compound S3]
[1]; [3]
  IC50: 0.01 to 100 µM
[2]; 2 h; read-out: IR (10 μM)
  inhibition at 10 µM: 98.8%

## NS(=O)(=O)OC[C@@H]1C[C@@H](n2nnc3c(N[C@@H]4C[C@H]4c4ccc(F)c(F)c4)ncnc32)CC1O (stereo partly drawn) [Compound S16]
[1]; [3]
  IC50: > 100 µM
[2]; 2 h; read-out: IR (10 μM)
  inhibition at 10 µM: 85.2%

## NS(=O)(=O)OCC1CC(n2nnc3c(N[C@@H]4c5ccccc5C[C@@H]4O)ncnc32)CC1O (stereo partly drawn) [Compound S9]
[1]; [3]
  IC50: < 0.01 µM
[2]; 2 h; read-out: IR (10 μM)
  inhibition at 10 µM: 98.3%

## NS(=O)(=O)OCC1CC(n2nnc3c(N[C@H]4CCc5ccccc54)ncnc32)CC1O (stereo partly drawn) [Compound S1]
[1]; [4]
  IC50: < 0.01 µM
[2]; 2 h, read-out: IR (10 μM)
  inhibition at 10 µM: 99%

## CN1CCC2(CC1)C[C@H](Nc1ncnc3c1nnn3C1CC(O)C(COS(N)(=O)=O)C1)c1ccccc12 (stereo partly drawn) [Compound S15]
[1]; [3]
  IC50: 0.01 to 100 µM
[2]; 2 h; read-out: IR (10 μM)
  inhibition at 10 µM: 77%
[2]; NAE enzyme activity, HTRF
  IC50: 0.1 to 1 µM

## NS(=O)(=O)OC[C@@H]1C[C@@H](n2ccc3c(N[C@H]4CCc5ccccc54)ncnc32)C[C@@H]1O [MLN4924, reference compound]
[1]; [3]
  IC50: < 0.01 µM
[2]; 2 h, read-out: IR (10 μM)
  inhibition at 10 µM: 98.6%
